Data as given in patent publication US6794395B1, “Substituted indolinones, their manufacture and their use as medicaments” (Boehringer Ingelheim Pharma GmbH & Co. KG, priority 1999, dated 2004).

Tests used:
[1] = system: Human umbilical endothelial cells (HUVEC); experiment: Inhibition of VEGF165-stimulated HUVEC proliferation (3H-thymidine incorporation); assay type: cell-based; details: HUVEC proliferation stimulated with 5 ng/ml VEGF165 and 10 μg/ml heparin, 76 h + 16 h 3H-thymidine
Description: Human umbilical endothelial cells (HUVEC) were cultivated in IMDM (Gibco BRL), supplemented with 10% foetal calf serum (FBS) (Sigma), 50 μM of β-mercaptoethanol (Fluka), standard antibiotics, 15 μg/ml of endothelial cell growth factor (ECGS, Collaborative Biomedical Products) and 100 μg/ml of heparin (Sigma) on gelatine-coated culture dishes (0.2% gelatine, Sigma) at 37° C., under 5% CO2 in a water-saturated atmosphere.
In order to investigate the inhibitory activity of the compounds according to the invention the cells were “starved” for 16 hours, i.e. kept in culture medium without growth factors (ECGS+heparin). The cells were detached from the culture dishes using trypsin/EDTA and washed once in serum-containing medium. Then they were seeded out in amounts of 2.5×10^3 cells per well.
The proliferation of the cells was stimulated with 5 ng/ml of VEGF165 (vascular endothelial growth factor; H. Weich, GBF Braunschweig) and 10 μg/ml of heparin. As a control, 6 wells in each dish were not stimulated.
The compounds according to the invention were dissolved in 100% dimethylsulphoxide and added to the cultures in various dilutions as triple measurements, the maximum dimethyl sulphoxide concentration being 0.3%.
The cells were incubated for 76 hours at 37° C., then for a further 16 hours ^3H-thymidine (0.1 μCi/well, Amersham) was added in order to determine the DNA synthesis. Then the radioactively labelled cells were immobilised on filter mats and the radioactivity incorporated was measured in a β-counter. In order to determine the inhibitory activity of the compounds according to the invention the mean value of the non-stimulated cells was subtracted from the mean value of the factor-stimulated cells (in the presence or absence of the compounds according to the invention).
The relative cell proliferation was calculated as a percentage of the control (HUVEC without inhibitor) and the concentration of active substance which inhibits the proliferation of the cells by 50% (IC50) was determined.

[2] = Tolerance test on mice (oral LD50); details: mouse, in vivo, read-out: approximate oral LD50
Description: In addition the compound of Example 1 (6) was tested on mice for its tolerance. The approximate oral LD50 for this compound is over 1,000 mg/kg. The compounds of general formula I are therefore well tolerated.

| Structure (SMILES) | IC50 [1] [nM] | LD50 [2] [mg/kg] |
| --- | --- | --- |
| COc1cc2c(cc1OC)/C(=C(/Nc1ccc(CN(C)Cc3ccccc3)cc1)c1ccccc1)C(=O)N2 [1 (3), 3-(Z)-(1-{4-[(N-benzyl-N-methyl-amino)-methyl)-anilino}-1-phenyl-methylidene)-5,6-dimethoxy-2-indolinone] | 270 |  |
| COc1cc2c(cc1OC)/C(=C(/Nc1ccc(N(C)C(=O)CN(C)C)cc1)c1ccccc1)C(=O)N2 [1 (8), 3-(Z)-{1-[4-(N-dimethylaminomethylcarbonyl-N-methyl-amino)-anilino]-1-phenyl-methylidene}-5,6-dimethoxy-2-indolinone] | 50 |  |
| COc1cc2c(cc1OC)/C(=C(/Nc1ccc(N(CCN(C)C)C(C)=O)cc1)c1ccccc1)C(=O)N2 [1 (17), 3-(Z)-(1-{4-[N-acetyl-N-(2-dimethylamino-ethyl)-amino]-anilino}-1-phenyl-methylidene)-5,6-dimethoxy-2-indolinone] | 40 |  |
| COc1cc2c(cc1OC)/C(=C(/Nc1ccc(N(CCCN(C)C)C(C)=O)cc1)c1ccccc1)C(=O)N2 [1 (18), 3-(Z)-(1-{4-[N-acetyl-N-(3-dimethylamino-propyl)-amino]-anilino}-1-phenyl-methylidene)-5,6-dimethoxy-2-indolinone] | 40 |  |
| CC/C(Nc1ccc(N(C)C(=O)CN(C)C)cc1)=C1/C(=O)Nc2cc(OC)c(OC)cc21 [1 (50), 3-(Z)-{1-[4-(N-dimethylaminomethylcarbonyl-N-methylamino)-anilino]-1-ethyl-methylidene}-5,6-dimethoxy-2-indolinone] | 830 |  |
| COc1cc2c(cc1OC)/C(=C(/Nc1ccc(CN(C)C)cc1)c1ccccc1)C(=O)N2 [Example 1 (6), 3-(Z)-(1-(4-(dimethylaminomethyl)-anilino]-1-phenyl-methylidene}-5,6-dimethoxy-2-indolinone] | 20 | > 1000 |
| COc1cc2c(cc1OC)/C(=C(/Nc1ccc(CN3CCCCC3)cc1)c1ccccc1)C(=O)N2 [Example 1, 3-(Z)-{1-[4-(piperidin-1-yl-methyl)-anilino]-1-phenyl-methylidene}-5,6-dimethoxy-2-indolinone] | 30 |  |
| COc1cc2c(cc1OC)/C(=C(/Nc1ccc(CCN3CCC(C(=O)N(C)C)CC3)cc1)c1ccccc1)C(=O)N2 [Example 3, 3-(Z)-(1-{4-[2-(4-dimethylcarbamoyl-piperidin-1-yl)-ethyl]-anilino}-1-phenyl-methylidene)-5,6-dimethoxy-2-indolinone] | 50 |  |
| Nc1ccc2c(c1)NC(=O)/C2=C(\Nc1ccc(CN2CCCCC2)cc1)c1ccccc1 [Example 4, 6-amino-3-(Z)-{1-[4-(piperidin-1-yl-methyl)-anilino]-1-phenyl-methylidene}-2-indolinone] | 40 |  |
